# From US20250368627A1, “PYRAZOLESULFONAMIDES AS ANTITUMOR AGENTS” (Peloton Therapeutics, Inc., a fully owned subsidiary of …, priority 2019, published 2025)
# What was measured:
# [1] = biological target: T1, DDB1DB/DCAF15 and RBM39 R1R2 complex (Homo sapiens, UniProt Q14498+Q66K64); assay: DCAF15 RBM39 Complex Formation Assay (FRET); format: binding; conditions: FRET ratio Em 665/Em 615, incubated overnight at 4° C.
# T1 construct: Amino acids 150 to 331 of RBM39 were cloned into pGEX4T3; GST (from vector pGEX4T3); TEV cleavage site (N); made in house; host or cells: DDB1DB/His-DCAF15: baculovirus/Sf9 co-expression; RBM39 R1R2: E. coli (pGEX4T3)
# Method in brief: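 Ternary complex formation read by TR-FRET (Em 665/615, excitation 340 nm) after overnight incubation at 4° C of 20 nM baculovirus DDB1DB/His-DCAF15 and 50 nM E. coli RBM39 RRM1-RRM2 FLAG fragment with 14-point, 3-fold compound dilutions from 1 μM; EC50 from 4-parameter fit.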
# [2] = system: HCT116 human colorectal carcinoma cells; assay: CellTiter-Glo Luminescent Cell Viability Assay; format: cell-based; conditions: HCT-116, 72 h, 3 days
# Method in brief: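 HCT116 cells were exposed for 3 days to compound in triplicate at final concentrations of 5 to 0.0002 […] (1:3 dilutions). Viability was read by CellTiter-Glo luminescence, and IC50 values were calculated.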
# T1 sequence (Q66K64 whole entry, the tested form may be a part): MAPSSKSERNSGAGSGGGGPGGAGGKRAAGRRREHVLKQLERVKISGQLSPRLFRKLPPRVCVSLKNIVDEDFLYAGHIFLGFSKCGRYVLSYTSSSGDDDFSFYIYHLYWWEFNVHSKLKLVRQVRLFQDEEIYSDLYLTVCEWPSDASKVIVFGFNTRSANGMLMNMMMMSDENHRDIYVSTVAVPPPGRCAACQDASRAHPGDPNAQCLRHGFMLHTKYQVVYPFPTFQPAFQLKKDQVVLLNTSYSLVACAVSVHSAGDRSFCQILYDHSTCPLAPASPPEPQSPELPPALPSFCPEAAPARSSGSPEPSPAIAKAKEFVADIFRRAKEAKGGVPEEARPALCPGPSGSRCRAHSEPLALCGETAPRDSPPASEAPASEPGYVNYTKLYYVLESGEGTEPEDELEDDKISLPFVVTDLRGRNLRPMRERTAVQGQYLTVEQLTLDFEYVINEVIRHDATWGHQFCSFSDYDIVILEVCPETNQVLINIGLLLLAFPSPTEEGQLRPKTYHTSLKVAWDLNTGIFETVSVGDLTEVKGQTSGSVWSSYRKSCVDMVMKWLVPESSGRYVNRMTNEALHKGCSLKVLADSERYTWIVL
# T1 sequence (Q14498 150-331): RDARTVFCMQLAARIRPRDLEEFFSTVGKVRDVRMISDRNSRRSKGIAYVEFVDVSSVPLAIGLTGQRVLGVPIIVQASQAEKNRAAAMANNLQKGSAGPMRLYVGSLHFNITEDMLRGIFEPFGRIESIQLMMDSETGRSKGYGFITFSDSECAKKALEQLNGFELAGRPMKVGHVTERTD
# T1 sequence (Q16531 with tags, fused parts or gaps DEL396-708 partner): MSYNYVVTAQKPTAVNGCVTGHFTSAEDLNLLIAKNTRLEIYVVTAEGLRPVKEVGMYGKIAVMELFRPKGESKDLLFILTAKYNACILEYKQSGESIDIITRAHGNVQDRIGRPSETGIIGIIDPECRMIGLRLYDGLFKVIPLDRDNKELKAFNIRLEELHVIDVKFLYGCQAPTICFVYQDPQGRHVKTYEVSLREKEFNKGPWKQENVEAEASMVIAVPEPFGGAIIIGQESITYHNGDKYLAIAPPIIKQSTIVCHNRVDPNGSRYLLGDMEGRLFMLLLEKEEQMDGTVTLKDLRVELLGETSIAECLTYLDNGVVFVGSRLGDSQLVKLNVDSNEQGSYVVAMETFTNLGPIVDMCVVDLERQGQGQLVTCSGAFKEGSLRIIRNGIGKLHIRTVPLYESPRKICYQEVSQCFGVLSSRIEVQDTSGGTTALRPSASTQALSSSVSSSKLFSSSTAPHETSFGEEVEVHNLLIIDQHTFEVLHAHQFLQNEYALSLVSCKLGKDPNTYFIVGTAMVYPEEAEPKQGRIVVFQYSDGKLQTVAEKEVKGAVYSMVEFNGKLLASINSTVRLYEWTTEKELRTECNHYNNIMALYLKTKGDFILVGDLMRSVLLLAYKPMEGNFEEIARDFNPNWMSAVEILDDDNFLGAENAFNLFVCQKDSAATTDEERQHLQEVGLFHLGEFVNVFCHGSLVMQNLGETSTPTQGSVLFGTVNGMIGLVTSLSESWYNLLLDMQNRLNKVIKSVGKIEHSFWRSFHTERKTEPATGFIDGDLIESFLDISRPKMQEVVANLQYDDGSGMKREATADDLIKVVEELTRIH
IC50 [1] [nM],EC50 [2] [nM],SMILES
< 250,250 to 1000,"Cc1ccc(NS(=O)(=O)c2cnn(CC3(F)CNC3)c2)c2[nH]cc(C#N)c12 [Compound 257, N-(3-cyano-4-methyl-1H-indol-7-yl)-1-[(3-fluoroazetidin-3-yl)methyl]pyrazole-4-sulfonamide]"
< 250,250 to 1000,"Cc1ccc(NS(=O)(=O)c2cnn(C(C)(C)C(N)=O)c2)c2[nH]cc(C#N)c12 [Compound 241, 2-[4-[(3-cyano-4-methyl-1H-indol-7-yl)sulfamoyl]pyrazol-1-yl]-2-methyl-propanamide]"
< 250,> 1000,"N#Cc1c[nH]c2c(NS(=O)(=O)c3c[nH]nc3N)ccc(Cl)c12 [Compound 296, 3-amino-N-(4-chloro-3-cyano-1H-indol-7-yl)-1H-pyrazole-4-sulfonamide]"
< 250,> 1000,"N#Cc1c[nH]c2c(NS(=O)(=O)c3cnn(CC4(O)CCOCC4)c3)ccc(Cl)c12 [Compound 184, N-(4-chloro-3-cyano-1H-indol-7-yl)-1-[(4-hydroxytetrahydropyran-4-yl)methyl]pyrazole-4-sulfonamide]"
< 250,> 1000,"CC(C)(O)Cn1cc(S(=O)(=O)Nc2ccc(F)c3c(C#N)c[nH]c23)c(F)n1 [Compound 206, N-(3-cyano-4-fluoro-1H-indol-7-yl)-3-fluoro-1-(2-hydroxy-2-methyl-propyl)pyrazole-4-sulfonamide]"
< 250,< 250,"Cc1ccc(NS(=O)(=O)c2cnn([C@H](C)CF)c2)c2[nH]cc(C#N)c12 [Compound 281, N-(3-cyano-4-methyl-1H-indol-7-yl)-1-[(1R)-2-fluoro-1-methyl-ethyl]pyrazole-4-sulfonamide]"
< 250,< 250,"Cc1ccc(NS(=O)(=O)c2cnn([C@@H](C)[C@@H](C)O)c2)c2[nH]cc(C#N)c12 [Compound 234, N-(3-cyano-4-methyl-1H-indol-7-yl)-1-[(1S,2R)-2-hydroxy-1-methyl-propyl]pyrazole-4-sulfonamide]"
< 250,250 to 1000,"O=S(=O)(Nc1cccc2c(Cl)c[nH]c12)c1cnn(CF)c1 [Compound 56, N-(3-chloro-1H-indol-7-yl)-1-(fluoromethyl)pyrazole-4-sulfonamide]"
< 250,250 to 1000,"Cn1cc(S(=O)(=O)Nc2ccc(F)c3c(C#N)c[nH]c23)cn1 [Compound 65, N-(3-cyano-4-fluoro-1H-indol-7-yl)-1-methyl-pyrazole-4-sulfonamide]"
< 250,< 250,"Cc1ccc(NS(=O)(=O)c2cnn(C(C)(C)CC(C)(C)O)c2)c2[nH]cc(C#N)c12 [Compound 231, N-(3-cyano-4-methyl-1H-indol-7-yl)-1-(3-hydroxy-1,1,3-trimethyl-butyl)pyrazole-4-sulfonamide]"
< 250,> 1000,"Cc1ccc(NS(=O)(=O)c2cnn(CC(N)=O)c2)c2[nH]cc(C#N)c12 [Compound 141, 2-[4-[(3-cyano-4-methyl-1H-indol-7-yl)sulfamoyl]pyrazol-1-yl]acetamide]"
< 250,250 to 1000,"CC(C)(O)CCn1cc(S(=O)(=O)Nc2ccc(Cl)c3c(C#N)c[nH]c23)cn1 [Compound 220, N-(4-chloro-3-cyano-1H-indol-7-yl)-1-(3-hydroxy-3-methyl-butyl)pyrazole-4-sulfonamide]"
< 250,250 to 1000,"CC(C)(O)CCn1cc(S(=O)(=O)Nc2ccc(F)c3c(C#N)c[nH]c23)cn1 [Compound 222, N-(3-cyano-4-fluoro-1H-indol-7-yl)-1-(3-hydroxy-3-methyl-butyl)pyrazole-4-sulfonamide]"
< 250,> 1000,"O=S(=O)(Nc1cccc2c(Cl)c[nH]c12)c1cnn(-c2ccccc2)c1 [Compound 37, N-(3-chloro-1H-indol-7-yl)-1-phenyl-pyrazole-4-sulfonamide]"
< 250,< 250,"Cc1ccc(NS(=O)(=O)c2cnn(CCC(C)(C)O)c2)c2[nH]cc(C#N)c12 [Compound 221, N-(3-cyano-4-methyl-1H-indol-7-yl)-1-(3-hydroxy-3-methyl-butyl)pyrazole-4-sulfonamide]"
< 250,> 1000,"O=S(=O)(Nc1cccc2c(Cl)c[nH]c12)c1cnn(CCCF)c1 [Compound 57, N-(3-chloro-1H-indol-7-yl)-1-(3-fluoropropyl)pyrazole-4-sulfonamide]"
< 250,250 to 1000,"Cc1ccc(NS(=O)(=O)c2cnn(CCO)c2)c2[nH]cc(C#N)c12 [Compound 25, N-(3-cyano-4-methyl-1H-indol-7-yl)-1-(2-hydroxyethyl)-1H-pyrazole-4-sulfonamide]"

IC50 [1] [nM],EC50 [2] [nM],SMILES
< 250,250 to 1000,"Cc1ccc(NS(=O)(=O)c2cnn(CCCO)c2)c2[nH]cc(C#N)c12 [Compound 210, N-(3-cyano-4-methyl-1H-indol-7-yl)-1-(3-hydroxypropyl)pyrazole-4-sulfonamide]"
< 250,> 1000,"CC(C)(N)Cn1cc(S(=O)(=O)Nc2ccc(Cl)c3c(C#N)c[nH]c23)cn1 [Compound 178, 1-(2-amino-2-methyl-propyl)-N-(4-chloro-3-cyano-1H-indol-7-yl)pyrazole-4-sulfonamide]"
< 250,250 to 1000,"N#Cc1c[nH]c2c(NS(=O)(=O)c3cnn(CC4(C#N)CC4)c3)ccc(Cl)c12 [Compound 183, N-(4-chloro-3-cyano-1H-indol-7-yl)-1-[(1-cyanocyclopropyl)methyl]pyrazole-4-sulfonamide]"
< 250,< 250,"O=S(=O)(Nc1ccc(Cl)c2c(Cl)c[nH]c12)c1cnn(C2COC2)c1 [Compound 143, N-(3,4-dichloro-1H-indol-7-yl)-1-(oxetan-3-yl)pyrazole-4-sulfonamide]"
< 250,> 1000,"COCCOCCn1cc(S(=O)(=O)Nc2cccc3c(Cl)c[nH]c23)cn1 [Compound 23, N-(3-chloro-1H-indol-7-yl)-1-[2-(2-methoxyethoxy)ethyl]pyrazole-4-sulfonamide]"
< 250,250 to 1000,"[2H]C([2H])([2H])n1cc(S(=O)(=O)Nc2ccc(C)c3c(C#N)c[nH]c23)cn1 [Compound 110, N-(3-Cyano-4-methyl-1H-indol-7-yl)-1-(trideuteriomethyl)pyrazole-4-sulfonamide]"
< 250,250 to 1000,"Cc1ccc(NS(=O)(=O)c2cnn(CCC(C)O)c2)c2[nH]cc(C#N)c12 (centres unmarked) [Compound 270, N-(3-cyano-4-methyl-1H-indol-7-yl)-1-(3-hydroxybutyl)pyrazole-4-sulfonamide]"
< 250,< 250,"Cc1ccc(NS(=O)(=O)c2cnn(C(C)(C)C)c2)c2[nH]cc(C#N)c12 [Compound 94, 1-tert-butyl-N-(3-cyano-4-methyl-1H-indol-7-yl)pyrazole-4-sulfonamide]"
< 250,250 to 1000,"Cc1ccc(NS(=O)(=O)c2cnn(CC3(C)COC3)c2)c2[nH]cc(C#N)c12 [Compound 71, N-(3-cyano-4-methyl-1H-indol-7-yl)-1-[(3-methyloxetan-3-yl)methyl]pyrazole-4-sulfonamide]"
< 250,250 to 1000,"Cc1ccc(NS(=O)(=O)c2cnn([C@@H](CO)CF)c2)c2[nH]cc(C#N)c12 [Compound 246, N-(3-cyano-4-methyl-1H-indol-7-yl)-1-[(1S)-1-(fluoromethyl)-2-hydroxy-ethyl]pyrazole-4-sulfonamide]"
< 250,250 to 1000,"CC(C)(O)Cn1ncc(S(=O)(=O)Nc2ccc(Cl)c3c(C#N)c[nH]c23)c1N [Compound 289, 5-amino-N-(4-chloro-3-cyano-1H-indol-7-yl)-1-(2-hydroxy-2-methyl-propyl)pyrazole-4-sulfonamide]"
< 250,250 to 1000,"C[C@H]([C@@H](C)O)n1cc(S(=O)(=O)Nc2ccc(F)c3c(C#N)c[nH]c23)cn1 [Compound 288, N-(3-cyano-4-fluoro-1H-indol-7-yl)-1-[(1R,2R)-2-hydroxy-1-methyl-propyl]pyrazole-4-sulfonamide]"
< 250,< 250,"CCn1ncc(S(=O)(=O)Nc2ccc(C)c3c(C#N)c[nH]c23)c1N [Compound 271, 5-amino-N-(3-cyano-4-methyl-1H-indol-7-yl)-1-ethyl-pyrazole-4-sulfonamide]"
< 250,250 to 1000,"N#Cc1c[nH]c2c(NS(=O)(=O)c3cnn(CC(F)F)c3)ccc(Cl)c12 [Compound 91, N-(4-chloro-3-cyano-1H-indol-7-yl)-1-(2,2-difluoroethyl)pyrazole-4-sulfonamide]"
< 250,250 to 1000,"Cc1nn(C)cc1S(=O)(=O)Nc1ccc(C)c2c(C#N)c[nH]c12 [Compound 114, N-(3-cyano-4-methyl-1H-indol-7-yl)-1,3-dimethyl-pyrazole-4-sulfonamide]"
< 250,> 1000,"N#Cc1c[nH]c2c(NS(=O)(=O)c3cnn(CF)c3N)ccc(F)c12 [Compound 309, 5-amino-N-(3-cyano-4-fluoro-1H-indol-7-yl)-1-(fluoromethyl)pyrazole-4-sulfonamide]"
< 250,< 250,"CC(C)(CO)n1cc(S(=O)(=O)Nc2ccc(Cl)c3c(C#N)c[nH]c23)cn1 [Compound 171, N-(4-chloro-3-cyano-1H-indol-7-yl)-1-(2-hydroxy-1,1-dimethyl-ethyl)pyrazole-4-sulfonamide]"
